Measured values taken from patent publication US7998940B2, “Aptamers to von Willebrand factor and their use as thrombotic disease therapeutics” (Archemix Corp., priority 2004, dated 2011).
pKd: −log10 of the molar value. Oligonucleotides are written 5' to 3', each unit as a sugar letter and its base; * is a phosphorothioate linkage, no mark a phosphodiester; rarer units and linkages stand in square brackets, end groups in braces. Plain capitals give the bases only. [invdT] = inverted (3'-3') thymidine; d = 2'-deoxy (DNA); m = 2'-O-methyl

Test system: full length human vWF (SEQ ID NO 7)
Test: dot blot KD determination and extent of binding, full length human vWF;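 further: dot blot binding of aptamers to full length human vWF across a protein titration, incubated 30 minutes at room temperature in 1x DPBS with BSA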
Conditions: for % binding @ 100 nM vWF / pKd: Phase 1 modification; for % binding @ 100 nM vWF: extent of aptamer binding at 100 nM full length human vWF; for pKd: full length human vWF, 8 point protein titration, read-out: KD

Substance	% binding @ 100 nM vWF [%]	pKd (dot blot)	binding to human vWF (in words, dot blot)
ARC1115: ARC1029 with PEG spacer replaced with a short oligonucleotide sequence, dTdTdC (DNA GGCGTGCAGTGCCTTCGGCCGTGCGGTGCCTCCGTCACGCC; unmodified DNA)	36	8.70	shown to bind
ARC1194: ARC1172 with one residue replaced by 2'-O methyl residue (DNA mGdGdCdGdTdGdCdAdGdTdGdCdCdTdTdCdGdGdCdCdGdTdGdCdGdGdTdGdCdCdTdCdCdGdTdCdAdCdGdCdC[invdT]; aptamer)	46	8.52	–
ARC1195: ARC1172 with one residue replaced by 2'-O methyl residue (DNA dGmGdCdGdTdGdCdAdGdTdGdCdCdTdTdCdGdGdCdCdGdTdGdCdGdGdTdGdCdCdTdCdCdGdTdCdAdCdGdCdC[invdT]; aptamer)	55	9.00	–
ARC1196: ARC1172 with one residue replaced by 2'-O methyl residue (DNA dGdGmCdGdTdGdCdAdGdTdGdCdCdTdTdCdGdGdCdCdGdTdGdCdGdGdTdGdCdCdTdCdCdGdTdCdAdCdGdCdC[invdT]; aptamer)	46	8.70	–
ARC1197: ARC1172 with one residue replaced by 2'-O methyl residue (DNA dGdGdCmGdTdGdCdAdGdTdGdCdCdTdTdCdGdGdCdCdGdTdGdCdGdGdTdGdCdCdTdCdCdGdTdCdAdCdGdCdC[invdT]; aptamer)	46	8.70	–
ARC1198: ARC1172 with one residue replaced by 2'-O methyl residue (DNA dGdGdCdGmUdGdCdAdGdTdGdCdCdTdTdCdGdGdCdCdGdTdGdCdGdGdTdGdCdCdTdCdCdGdTdCdAdCdGdCdC[invdT]; aptamer)	50	9.05	–
ARC1199: ARC1172 with one residue replaced by 2'-O methyl residue (DNA dGdGdCdGdTmGdCdAdGdTdGdCdCdTdTdCdGdGdCdCdGdTdGdCdGdGdTdGdCdCdTdCdCdGdTdCdAdCdGdCdC[invdT]; aptamer)	28	7.72	–
ARC1200: ARC1172 with one residue replaced by 2'-O methyl residue (DNA dGdGdCdGdTdGmCdAdGdTdGdCdCdTdTdCdGdGdCdCdGdTdGdCdGdGdTdGdCdCdTdCdCdGdTdCdAdCdGdCdC[invdT]; aptamer)	25	8.30	–
ARC1201: ARC1172 with one residue replaced by 2'-O methyl residue (DNA dGdGdCdGdTdGdCmAdGdTdGdCdCdTdTdCdGdGdCdCdGdTdGdCdGdGdTdGdCdCdTdCdCdGdTdCdAdCdGdCdC[invdT]; aptamer)	6	9.05	–
ARC1202: ARC1172 with one residue replaced by 2'-O methyl residue (DNA dGdGdCdGdTdGdCdAmGdTdGdCdCdTdTdCdGdGdCdCdGdTdGdCdGdGdTdGdCdCdTdCdCdGdTdCdAdCdGdCdC[invdT]; aptamer)	56	9.40	–
ARC1203: ARC1172 with one residue replaced by 2'-O methyl residue (DNA dGdGdCdGdTdGdCdAdGmUdGdCdCdTdTdCdGdGdCdCdGdTdGdCdGdGdTdGdCdCdTdCdCdGdTdCdAdCdGdCdC[invdT]; aptamer)	40	8.52	–
ARC1204: ARC1172 with one residue replaced by 2'-O methyl residue (DNA dGdGdCdGdTdGdCdAdGdTmGdCdCdTdTdCdGdGdCdCdGdTdGdCdGdGdTdGdCdCdTdCdCdGdTdCdAdCdGdCdC[invdT]; aptamer)	45	8.70	–
ARC1205: ARC1172 with one residue replaced by 2'-O methyl residue (DNA dGdGdCdGdTdGdCdAdGdTdGmCdCdTdTdCdGdGdCdCdGdTdGdCdGdGdTdGdCdCdTdCdCdGdTdCdAdCdGdCdC[invdT]; aptamer)	50	9.00	–
